Laboratory results from US20220356174A1, “PYRIDIN-2-ONE COMPOUNDS USEFUL AS SMARCA2 ANTAGONISTS” (Epizyme, Inc., priority 2018, published 2022).
Where two headings read alike, the source gives them in different places.

Key:
[1] = biological target: T1, FL-SMARCA2 (full-length human SMARCA2 isoform 1) (Homo sapiens, UniProt P51531); experiment: SMARCA2 ATPase activity assay (ADP-Glo, chicken mononucleosome substrate); assay type: biochemical; settings: ATP 250 uM
T1 construct: FLAG tag (YKDDDDK) (C); made in house; host or cells: Sf21 insect cells (baculovirus, pFastBacI)
T1 sequence (P51531 with tags, fused parts or gaps): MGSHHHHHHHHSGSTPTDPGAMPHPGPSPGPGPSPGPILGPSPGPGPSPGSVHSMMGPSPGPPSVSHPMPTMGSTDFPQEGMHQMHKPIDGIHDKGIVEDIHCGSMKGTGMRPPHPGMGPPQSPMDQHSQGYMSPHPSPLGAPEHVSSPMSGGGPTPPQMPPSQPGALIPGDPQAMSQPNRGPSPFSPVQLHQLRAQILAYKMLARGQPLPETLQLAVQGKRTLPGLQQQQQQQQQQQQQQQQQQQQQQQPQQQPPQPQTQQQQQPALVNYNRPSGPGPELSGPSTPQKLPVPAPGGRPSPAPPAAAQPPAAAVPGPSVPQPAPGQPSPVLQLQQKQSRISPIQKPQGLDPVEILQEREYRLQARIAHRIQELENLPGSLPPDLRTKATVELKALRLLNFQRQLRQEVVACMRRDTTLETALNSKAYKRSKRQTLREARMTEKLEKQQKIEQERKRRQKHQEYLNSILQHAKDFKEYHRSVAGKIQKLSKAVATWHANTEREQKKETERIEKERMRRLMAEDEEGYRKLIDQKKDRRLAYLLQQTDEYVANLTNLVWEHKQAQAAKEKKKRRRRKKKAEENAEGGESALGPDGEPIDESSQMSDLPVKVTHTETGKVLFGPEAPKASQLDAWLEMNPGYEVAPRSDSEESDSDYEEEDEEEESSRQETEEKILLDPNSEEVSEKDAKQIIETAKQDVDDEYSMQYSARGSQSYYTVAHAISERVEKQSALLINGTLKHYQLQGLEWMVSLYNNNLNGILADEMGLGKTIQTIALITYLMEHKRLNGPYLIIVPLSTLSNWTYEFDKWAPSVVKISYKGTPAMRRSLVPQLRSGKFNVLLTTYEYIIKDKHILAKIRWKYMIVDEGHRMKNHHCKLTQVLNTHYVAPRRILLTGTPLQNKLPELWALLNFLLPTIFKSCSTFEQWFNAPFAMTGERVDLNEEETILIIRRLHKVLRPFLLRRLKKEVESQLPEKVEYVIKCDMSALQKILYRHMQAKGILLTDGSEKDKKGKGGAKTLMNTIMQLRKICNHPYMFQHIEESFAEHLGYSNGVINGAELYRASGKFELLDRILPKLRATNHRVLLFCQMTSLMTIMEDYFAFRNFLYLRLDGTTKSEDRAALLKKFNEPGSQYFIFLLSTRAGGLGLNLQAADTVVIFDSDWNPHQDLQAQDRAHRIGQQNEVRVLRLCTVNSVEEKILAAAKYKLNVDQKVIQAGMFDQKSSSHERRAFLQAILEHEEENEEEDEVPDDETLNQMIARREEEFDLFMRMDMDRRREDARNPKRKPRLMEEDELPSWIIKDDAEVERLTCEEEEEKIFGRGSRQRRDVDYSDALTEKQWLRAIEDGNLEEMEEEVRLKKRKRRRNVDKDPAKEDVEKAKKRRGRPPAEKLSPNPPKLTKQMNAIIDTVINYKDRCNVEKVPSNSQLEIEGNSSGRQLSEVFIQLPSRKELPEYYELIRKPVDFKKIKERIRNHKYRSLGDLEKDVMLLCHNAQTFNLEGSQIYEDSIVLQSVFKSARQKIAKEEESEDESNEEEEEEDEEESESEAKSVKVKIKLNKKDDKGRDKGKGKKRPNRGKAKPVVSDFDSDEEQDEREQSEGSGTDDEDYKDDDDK

FL-SMARCA4 = FL-SMARCA4 (Homo sapiens, UniProt P51532); experiment: SMARCA4 ATPase activity assay (ADP-Glo, chicken mononucleosome substrate)
Chain of FL-SMARCA4 (P51532 whole entry): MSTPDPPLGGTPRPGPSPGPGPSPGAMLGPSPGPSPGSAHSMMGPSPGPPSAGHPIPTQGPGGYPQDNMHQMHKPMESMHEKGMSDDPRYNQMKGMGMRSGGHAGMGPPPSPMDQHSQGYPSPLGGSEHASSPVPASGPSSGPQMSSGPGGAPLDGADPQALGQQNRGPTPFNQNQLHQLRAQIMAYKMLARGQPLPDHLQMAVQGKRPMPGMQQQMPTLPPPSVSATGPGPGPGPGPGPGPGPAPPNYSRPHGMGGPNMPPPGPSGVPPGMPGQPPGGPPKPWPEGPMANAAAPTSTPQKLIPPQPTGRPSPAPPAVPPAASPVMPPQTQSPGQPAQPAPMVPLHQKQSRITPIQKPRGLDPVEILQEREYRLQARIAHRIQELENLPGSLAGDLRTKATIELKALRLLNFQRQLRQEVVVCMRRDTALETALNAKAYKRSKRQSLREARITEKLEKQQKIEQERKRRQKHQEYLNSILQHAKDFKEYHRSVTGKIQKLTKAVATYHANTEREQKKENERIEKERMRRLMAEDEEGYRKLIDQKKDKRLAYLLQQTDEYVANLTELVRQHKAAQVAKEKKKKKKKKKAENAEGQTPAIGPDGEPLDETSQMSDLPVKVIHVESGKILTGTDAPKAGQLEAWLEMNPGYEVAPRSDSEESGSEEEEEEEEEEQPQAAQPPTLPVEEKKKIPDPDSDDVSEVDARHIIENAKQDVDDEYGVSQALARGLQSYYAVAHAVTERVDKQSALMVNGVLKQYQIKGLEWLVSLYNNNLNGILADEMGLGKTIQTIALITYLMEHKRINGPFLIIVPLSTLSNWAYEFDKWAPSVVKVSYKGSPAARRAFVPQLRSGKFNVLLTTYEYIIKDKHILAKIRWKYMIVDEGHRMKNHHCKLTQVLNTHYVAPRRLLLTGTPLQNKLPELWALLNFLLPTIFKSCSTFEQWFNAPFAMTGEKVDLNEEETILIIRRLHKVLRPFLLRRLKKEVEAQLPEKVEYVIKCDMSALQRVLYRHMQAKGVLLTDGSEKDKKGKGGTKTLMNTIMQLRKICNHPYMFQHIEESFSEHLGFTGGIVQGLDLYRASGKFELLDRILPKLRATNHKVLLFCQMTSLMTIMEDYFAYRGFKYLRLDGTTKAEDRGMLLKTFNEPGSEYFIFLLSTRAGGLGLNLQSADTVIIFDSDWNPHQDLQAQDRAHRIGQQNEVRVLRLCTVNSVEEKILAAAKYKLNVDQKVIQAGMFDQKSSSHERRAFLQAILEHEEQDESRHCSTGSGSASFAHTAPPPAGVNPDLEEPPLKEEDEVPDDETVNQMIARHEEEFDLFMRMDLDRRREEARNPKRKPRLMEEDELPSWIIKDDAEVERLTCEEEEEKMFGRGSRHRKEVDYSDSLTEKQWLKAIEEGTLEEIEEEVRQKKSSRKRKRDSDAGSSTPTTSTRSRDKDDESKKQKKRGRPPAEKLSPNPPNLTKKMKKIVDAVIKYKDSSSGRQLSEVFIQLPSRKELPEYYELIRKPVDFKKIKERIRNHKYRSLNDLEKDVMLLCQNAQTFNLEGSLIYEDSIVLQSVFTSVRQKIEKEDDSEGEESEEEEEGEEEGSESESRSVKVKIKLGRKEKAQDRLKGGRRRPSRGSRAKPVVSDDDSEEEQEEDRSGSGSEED

[2] = Table 3.1, ATPase assay, enzyme 5 nM, chicken mononucleosome 10 nM, 30 min preincubation
[3] = FL-SMARCA4 IC50, Table 3.2, ATPase assay, enzyme 5 nM, ATP 250 uM, chicken mononucleosome 10 nM, 30 min preincubation
[4] = Table 3c.1, ATPase assay, enzyme 5 nM, chicken mononucleosome 10 nM, 30 min preincubation
[5] = FL-SMARCA4 IC>50, Table 3c.2, ATPase assay, enzyme 5 nM, ATP 250 uM, chicken mononucleosome 10 nM, 30 min preincubation
[6] = Table 3a.1, SMARCA2 5 nM, mononucleosome 10 nM
[7] = FL-SMARCA4 IC50, Table 3a.2, SMARCA4 5 nM, ATP 250 uM, mononucleosome 10 nM
[8] = Table 3d.1, ATPase assay, enzyme 5 nM, chicken mononucleosome 10 nM, 30 min preincubation, read-out: FL-SMARCA2 IC>50
[9] = Table 3b.1, SMARCA2 5 nM, mononucleosome 10 nM
[10] = FL-SMARCA4 IC50, Table 3b.2, SMARCA4 5 nM, ATP 250 uM, mononucleosome 10 nM

For Cn1c(C(=O)Nc2cc(Cl)c(=O)n(CC(F)(F)F)c2)cc(Cl)c1C#N [Compound 163], the IC50 [1, 2] was 0.309 µM and the IC50 (FL-SMARCA4; [3]) was 1.17 µM.

CCn1cc(NC(=O)c2csc(NC(C)C)n2)ccc1=O [Compound 218] was tested, and the IC50 [1, 2] was over 50 µM and the IC50 (FL-SMARCA4; [3]) was over 50 µM.

In the case of O=C(Nc1cc(F)c(=O)n(CCF)c1)c1cc(C#Cc2cccnc2)c(Cl)s1 [Compound 328], the IC50 [1, 2] is reported as 0.0384 µM and the IC50 (FL-SMARCA4; [3]) is reported as 0.108 µM.

In the case of O=C(Nc1cc(F)c(=O)n(CC(F)F)c1)c1cc(C#CC2COC2)c(F)s1 [Compound 108c], the IC50 [1, 4] is reported as 0.0818 µM and the IC50 (FL-SMARCA4; [5]) is reported as 0.2 µM.

CCn1cc(NC(=O)c2cc(Cl)c(Cl)[nH]2)cc(Cl)c1=O [Compound 158] gave an IC50 [1, 2] of 1.85 µM and an IC50 (FL-SMARCA4; [3]) of 13.7 µM.

O=C(Nc1cc(F)c(=O)n(CC(F)F)c1)c1nnc(Cl)o1 [Compound 1c] gave an IC50 [1, 4] of 0.402 µM and an IC50 (FL-SMARCA4; [5]) of over 50 µM.

In the case of O=C(Nc1cc(F)c(=O)n(CCF)c1)c1csc(NC2CCCC2)n1 [Compound 201], the IC50 [1, 2] is reported as over 50 µM and the IC50 (FL-SMARCA4; [3]) is reported as over 50 µM.

With O=C(Nc1ccc(=O)n(CC(F)(F)F)c1)c1cc(Cl)c(Cl)[nH]1 [Compound 166] the IC50 [1, 2] was 2.72 µM and the IC50 (FL-SMARCA4; [3]) was 16.6 µM.

Work on O=C(Nc1cc(F)c(=O)n(CCF)c1)c1cc2n(n1)CCNC2=O [Compound 64a] yielded an IC50 [1, 6] of over 50 µM and an IC50 (FL-SMARCA4; [7]) of over 50 µM.

O=C(Nc1cc(F)c(=O)n(CC(F)F)c1)c1nc(Cl)c[nH]1 [Compound 51d] showed an IC50 [1, 8] of over 50 µM and an IC50 (FL-SMARCA4; FL-SMARCA4 IC50) of over 50 µM.

O=C(Nc1cc(F)c(=O)n(CC(F)(F)F)c1)c1cc(Cl)c(Cl)[nH]1 [Compound 169] was tested, and the IC50 [1, 2] was 0.375 µM and the IC50 (FL-SMARCA4; [3]) was 1.41 µM.

In the case of CCn1cc(NC(=O)c2cc(Cl)c(Cl)[nH]2)cc(F)c1=O [Compound 167], the IC50 [1, 2] is reported as 0.609 µM and the IC50 (FL-SMARCA4; [3]) is reported as 2.86 µM.

Work on CCn1nc(NC(=O)c2cnc(Cl)s2)ccc1=O [Compound 20d] yielded an IC50 [1, 8] of 7.37 µM and an IC50 (FL-SMARCA4; FL-SMARCA4 IC50) of 28.9 µM.

Molecule O=C(Nc1cc(Cl)c(=O)n(CC(F)(F)F)c1)c1cnc(Cl)s1 [Compound 104] has an IC50 [1, 2] of 0.192 µM and an IC50 (FL-SMARCA4; [3]) of 0.229 µM.

Work on CCn1cc(NC(=O)c2cc3ccccc3s2)ccc1=O [Compound 36a] yielded an IC50 [1, 6] of over 50 µM and an IC50 (FL-SMARCA4; [7]) of over 50 µM.

In the case of CC(C)Nc1ncc(C(=O)Nc2cc(F)c(=O)n(CCF)c2)s1 [Compound 225], the IC50 [1, 2] is reported as over 50 µM and the IC50 (FL-SMARCA4; [3]) is reported as over 50 µM.

CC(=O)c1cc(C(=O)Nc2c[nH]c(=O)c(C)c2)ccc1C [Compound 1b] showed an IC50 [1, 9] of over 50 µM and an IC50 (FL-SMARCA4; [10]) of over 50 µM.

With O=C(Nc1cc(F)c(=O)n(CCF)c1)c1cc(C(F)(F)F)no1 [Compound 264] the IC50 [1, 2] was 6.23 µM and the IC50 (FL-SMARCA4; [3]) was 38.5 µM.

Work on Cn1c(C(=O)Nc2ccc(=O)n(CCF)c2)cc(Cl)c1Cl [Compound 58] yielded an IC50 [1, 2] of 1.3 µM and an IC50 (FL-SMARCA4; [3]) of 13.6 µM.

In the case of CC(C)(C)OC(=O)N1CC(C#Cc2cc(C(=O)Nc3cc(F)c(=O)n(CC(F)F)c3)sc2Cl)C1 [Compound 10c], the IC50 [1, 4] is reported as 3.35 µM and the IC50 (FL-SMARCA4; [5]) is reported as 7.13 µM.

CCn1cc(NC(=O)c2cnc(Cl)s2)ccc1=O [Compound 69] gave an IC50 [1, 2] of 2.52 µM and an IC50 (FL-SMARCA4; [3]) of 11.7 µM.

CCn1cc(NC(=O)C2CCCC2)ccc1=O [Compound 11b] was tested, and the IC50 [1, 9] was over 50 µM and the IC50 (FL-SMARCA4; [10]) was over 50 µM.

N#Cc1sc(C(=O)Nc2cc(C#N)c(=O)n(CCF)c2)cc1Cl [Compound 210] was tested, and the IC50 [1, 2] was 0.207 µM and the IC50 (FL-SMARCA4; [3]) was 0.694 µM.

COCCn1cc(NC(=O)c2cnn(-c3ccccc3C)c2C)ccc1=O [Compound 9] was tested, and the IC50 [1, 2] was over 50 µM and the IC50 (FL-SMARCA4; [3]) was over 50 µM.

Molecule CC(C)Cn1cc(NC(=O)c2cc(Cl)c(Cl)s2)ccc1=O [Compound 76] has an IC50 [1, 2] of over 50 µM and an IC50 (FL-SMARCA4; [3]) of over 50 µM.

In the case of CCn1cc(NC(=O)c2cc(OC)c(O)s2)ccc1=O [Compound 179], the IC50 [1, 2] is reported as over 50 µM and the IC50 (FL-SMARCA4; [3]) is reported as over 50 µM.

With O=C(Nc1cc(F)c(=O)n(CC(F)F)c1)c1cc(C#Cc2cccc3c2CNC3=O)c(Cl)s1 [Compound 137c] the IC50 [1, 4] was 0.3 µM and the IC50 (FL-SMARCA4; [5]) was 0.558 µM.

Molecule O=C(Nc1cc(F)c(=O)n(CC(F)F)c1)c1cc(C#Cc2ccnnc2)c(Cl)s1 [Compound 133c] has an IC50 [1, 4] of 0.0139 µM and an IC50 (FL-SMARCA4; [5]) of 0.0607 µM.

CCn1cc(NC(=O)c2cn(C)c3c(Cl)cccc23)ccc1=O [Compound 27a] gave an IC50 [1, 6] of over 50 µM and an IC50 (FL-SMARCA4; [7]) of over 50 µM.

CCc1cc(C(=O)Nc2ccc(=O)n(CC)c2)sc1Cl [Compound 91] was tested, and the IC50 [1, 2] was over 50 µM and the IC50 (FL-SMARCA4; [3]) was over 50 µM.

Molecule O=C(Nc1cc(F)c(=O)n(CCF)c1)c1ccc(Cl)cn1 [Compound 56a] has an IC50 [1, 6] of over 50 µM and an IC50 (FL-SMARCA4; [7]) of over 50 µM.

CCn1nc(NC(=O)c2cc(Cl)c(Cl)n2C)ccc1=O [Compound 16d] was tested, and the IC50 [1, 8] was 16.7 µM and the IC50 (FL-SMARCA4; FL-SMARCA4 IC50) was over 50 µM.

Cn1c(C(=O)Nc2cc(Cl)c(=O)n(CC(F)(F)F)c2)cnc1Cl [Compound 195] was tested, and the IC50 [1, 2] was 7.59 µM and the IC50 (FL-SMARCA4; [3]) was 29.8 µM.

With Cn1nc(Cl)cc1C(=O)Nc1cc(F)c(=O)n(CCF)c1 [Compound 233] the IC50 [1, 2] was 7.63 µM and the IC50 (FL-SMARCA4; [3]) was 36.4 µM.
